Measured values from paper PMC8222254, “Self-assembly of an anion receptor with metal-dependent kinase inhibition and potent in vitro anti-cancer properties” (Nature Communications, 2021).
pIC50: −log10 of the molar value. Several values for one entry are separate records, joined by “and”; a condition that tells them apart may be missing. Equal values may be shown once. Read-outs that look alike come from different tables or passages of the source.

Assays:
Test in all cases: Chemosensitivity, 96 h continuous exposure, MTT assay;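 as to SI (NPI): adult human brain neural progenitor non-cancer cells from an epilepsy surgery patient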;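 as to Selectivity Index using the NPI non-cancer cell line: adult human brain neural progenitor non-cancer cells from an epilepsy surgery patient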
Type in all cases: cell-based, human
[1] = test system: PSN1;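 as to SI (NPI): adult human brain neural progenitor non-cancer cells from an epilepsy surgery patient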;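 as to Selectivity Index using the NPI non-cancer cell line: adult human brain neural progenitor non-cancer cells from an epilepsy surgery patient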
Procedure, shortened: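 Cells seeded at 2 × 10^3/well (GBM1 3 × 10^3/well) and left overnight at 37 °C, then exposed continuously for 96 h to a range of compound concentrations (final DMSO 0.2%). Viability read by MTT, absorbance at 540 nm; IC50 taken from dose-response curves as concentration reducing cell growth by 50%.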

[2] = test system: MiaPaCa2
Procedure, shortened: (§1)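 Cells were seeded overnight at 37 °C (2 × 10^3/well; GBM1 at 3 × 10^3/well on poly-L-ornithine/laminin in Neurobasal with hFGF/rhEGF), then exposed to compound concentration ranges for 96 h. Viability was read by MTT (4 h, formazan in DMSO, A540) and IC50 taken from dose–response curves.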

[3] = test system: HCT116 p53+/+
Procedure, shortened: as §1

[4] = test system: A549
Procedure, shortened: as §1

[5] = test system: DLD-1
Procedure, shortened: as §1

[6] = test system: BxPC3
Procedure, shortened: as §1

[7] = test system: ARPE-19 non-cancer cells
Procedure, shortened: as §1

SMILES: [Cu+2].[Cu+2].[Cu+2].c1ccc(-c2csc(NCCN(CCNc3nc(-c4ccccn4)cs3)CCNc3nc(-c4ccccn4)cs3)n2)nc1.c1ccc(-c2csc(NCCN(CCNc3nc(-c4ccccn4)cs3)CCNc3nc(-c4ccccn4)cs3)n2)nc1 [[L2Cu3]6+]
- Selectivity index (ARPE19) ([1]; IC50 ARPE-19 / IC50 PSN1): 8.16
- Selectivity index (MCF10A) ([1]; IC50 MCF10A / IC50 PSN1): 7.48
- Selectivity Index using the NPI non-cancer cell line ([1]; IC50 NP1 / IC50 PSN1): 6.68
- pIC50 ([1]; PSN1, 96 h, MTT, individual run, read-out: IC50 values for each replicate): 5.20 and 5.22 and 5.15
- pIC50 ([1]; PSN1, 96 h, MTT, mean of at least 3 independent experiments, listed as [L2Cu3]^6+, read-out: Mean IC50): < 6.00
- pIC50 ([1]; PSN1, 96 h, MTT, mean of at least 3 independent experiments, read-out: Mean IC50): 5.19
- pIC50 ([1]; PSN1, mean of replicates, read-out: Mean IC50): 5.19
- pIC50 ([1]; PSN1, read-out: Mean IC50 values): 5.19
- SI (ARPE19) ([1]; mean IC50 ARPE-19 / mean IC50 PSN1): 8.16
- SI (MCF10A) ([1]; mean IC50 MCF10A / mean IC50 PSN1): 7.48
- SI (NPI) ([1]; mean IC50 NP1 / mean IC50 PSN1): 6.68
- Relative potency (+ anion to no anion), Ratio + anion:no anion ([1]; ratio of IC50, PSN1): 1
- Selectivity indices relative to ARPE-19, Ratio + anion:no anion ([1]; ratio of SI (ARPE-19), PSN1): 1
- Selectivity indices relative to MCF10A, Ratio + anion:no anion ([1]; ratio of SI (MCF 10A), PSN1): 1
- Selectivity index (ARPE19) ([2]; IC50 ARPE-19 / IC50 MiaPaCa2): 4.46
- Selectivity index (MCF10A) ([2]; IC50 MCF10A / IC50 MiaPaCa2): 4.09
- Selectivity Index using the NPI non-cancer cell line ([2]; IC50 NP1 / IC50 MiaPaCa2): 3.65
- pIC50 ([2]; MiaPaCa2, 96 h, MTT, individual run, read-out: IC50 values for each replicate): 4.77 and 5.18 and 5.20 and 5.28 and 4.75
- pIC50 ([2]; MiaPaCa2, 96 h, MTT, mean of at least 3 independent experiments, listed as [L2Cu3]^6+, read-out: Mean IC50): < 5.00
- pIC50 ([2]; MiaPaCa2, 96 h, MTT, mean of at least 3 independent experiments, read-out: Mean IC50): 4.93
- pIC50 ([2]; MiaPaCa2, mean of replicates, read-out: Mean IC50): 4.93
- pIC50 ([2]; MiaPaCa2, read-out: Mean IC50 values): 4.93
- SI (ARPE19) ([2]; mean IC50 ARPE-19 / mean IC50 MiaPaCa2): 4.46
- SI (MCF10A) ([2]; mean IC50 MCF10A / mean IC50 MiaPaCa2): 4.09
- SI (NPI) ([2]; mean IC50 NP1 / mean IC50 MiaPaCa2): 3.65
- Relative potency (+ anion to no anion), Ratio + anion:no anion ([2]; ratio of IC50, MiaPaCa2): 1
- Selectivity indices relative to ARPE-19, Ratio + anion:no anion ([2]; ratio of SI (ARPE-19), MiaPaCa2): 1
- Selectivity indices relative to MCF10A, Ratio + anion:no anion ([2]; ratio of SI (MCF 10A), MiaPaCa2): 1
- pIC50 ([3]; HCT116 p53+/+, 96 h, MTT, individual run, read-out: IC50 values for each replicate): 6.62 and 6.27 and 6.28 and 6.30 and 6.17
- pIC50 ([3]; HCT116 p53+/+, 96 h, MTT, mean of at least 3 independent experiments, read-out: Mean IC50): 6.30
- pIC50 ([3]; HCT116 p53+/+, mean of replicates, read-out: Mean IC50): 6.30
- pIC50 ([3]; HCT116 p53+/+, read-out: Mean IC50 values): 6.30
- Selectivity index (ARPE19) ([3]; IC50 ARPE-19 / IC50 HCT116 p53+/+): 106.11 and 106.2
- Selectivity index (MCF10A) ([3]; IC50 MCF10A / IC50 HCT116 p53+/+): 97.30
- Selectivity Index using the NPI non-cancer cell line ([3]; IC50 NP1 / IC50 HCT116 p53+/+): 86.88
- SI (ARPE19) ([3]; mean IC50 ARPE-19 / mean IC50 HCT116 p53+/+): 106.11
- SI (MCF10A) ([3]; mean IC50 MCF10A / mean IC50 HCT116 p53+/+): 97.30
- SI (NPI) ([3]; mean IC50 NP1 / mean IC50 HCT116 p53+/+): 86.88
- Relative potency (+ anion to no anion), Ratio + anion:no anion ([3]; ratio of IC50, HCT116 p53+/+): 1
- Selectivity indices relative to ARPE-19, Ratio + anion:no anion ([3]; ratio of SI (ARPE-19), HCT116 p53+/+): 1
- Selectivity indices relative to MCF10A, Ratio + anion:no anion ([3]; ratio of SI (MCF 10A), HCT116 p53+/+): 1
- pIC50 ([4]; A549, 96 h, MTT, individual run, read-out: IC50 values for each replicate): 6.59 and 6.72 and 6.60
- pIC50 ([4]; A549, 96 h, MTT, mean of at least 3 independent experiments, read-out: Mean IC50): 6.63
- pIC50 ([4]; A549, mean of replicates, read-out: Mean IC50): 6.63
- pIC50 ([4]; A549, read-out: Mean IC50 values): 6.63
- Selectivity index (ARPE19) ([4]; IC50 ARPE-19 / IC50 A549): 225.88
- Selectivity index (MCF10A) ([4]; IC50 MCF10A / IC50 A549): 207.12
- Selectivity Index using the NPI non-cancer cell line ([4]; IC50 NP1 / IC50 A549): 184.94
- SI (ARPE19) ([4]; mean IC50 ARPE-19 / mean IC50 A549): 225.88
- SI (MCF10A) ([4]; mean IC50 MCF10A / mean IC50 A549): 207.12
- SI (NPI) ([4]; mean IC50 NP1 / mean IC50 A549): 184.94
- Relative potency (+ anion to no anion), Ratio + anion:no anion ([4]; ratio of IC50, A549): 1
- Selectivity indices relative to ARPE-19, Ratio + anion:no anion ([4]; ratio of SI (ARPE-19), A549): 1
- Selectivity indices relative to MCF10A, Ratio + anion:no anion ([4]; ratio of SI (MCF 10A), A549): 1
- pIC50 ([5]; DLD-1, 96 h, MTT, mean of at least 3 independent experiments, read-out: Mean IC50): 6.88
- pIC50 ([5]; DLD-1, mean of replicates, read-out: Mean IC50): 6.88
- pIC50 ([5]; DLD-1, read-out: Mean IC50 values): 6.88
- Selectivity index (ARPE19) ([5]; IC50 ARPE-19 / IC50 DLD-1): 398.71
- Selectivity index (MCF10A) ([5]; IC50 MCF10A / IC50 DLD-1): 365.61
- Selectivity Index using the NPI non-cancer cell line ([5]; IC50 NP1 / IC50 DLD-1): 326.44
- SI (ARPE19) ([5]; mean IC50 ARPE-19 / mean IC50 DLD-1): 398.71
- SI (MCF10A) ([5]; mean IC50 MCF10A / mean IC50 DLD-1): 365.61
- SI (NPI) ([5]; mean IC50 NP1 / mean IC50 DLD-1): 326.44
- Relative potency (+ anion to no anion), Ratio + anion:no anion ([5]; ratio of IC50, DLD-1): 1
- Selectivity indices relative to ARPE-19, Ratio + anion:no anion ([5]; ratio of SI (ARPE-19), DLD-1): 1
- Selectivity indices relative to MCF10A, Ratio + anion:no anion ([5]; ratio of SI (MCF 10A), DLD-1): 1
- pIC50 ([6]; BXPC3, mean of replicates, read-out: Mean IC50): 6.53
- pIC50 ([6]; BXPC3, read-out: Mean IC50 values): 6.53
- pIC50 ([6]; BxPC3, 96 h, MTT, individual run, read-out: IC50 values for each replicate): 6.65 and 6.57 and 6.35 and 6.63
- pIC50 ([6]; BxPC3, 96 h, MTT, mean of at least 3 independent experiments, read-out: Mean IC50): 6.53
- Selectivity index (ARPE19) ([6]; IC50 ARPE-19 / IC50 BXPC3): 179.62
- Selectivity index (MCF10A) ([6]; IC50 MCF10A / IC50 BXPC3): 164.71
- Selectivity Index using the NPI non-cancer cell line ([6]; IC50 NP1 / IC50 BXPC3): 147.06
- SI (ARPE19) ([6]; mean IC50 ARPE-19 / mean IC50 BxPC3): 179.62
- SI (MCF10A) ([6]; mean IC50 MCF10A / mean IC50 BxPC3): 164.71
- SI (NPI) ([6]; mean IC50 NP1 / mean IC50 BxPC3): 147.06
- Relative potency (+ anion to no anion), Ratio + anion:no anion ([6]; ratio of IC50, BXPC3): 1
- Selectivity indices relative to ARPE-19, Ratio + anion:no anion ([6]; ratio of SI (ARPE-19), BXPC3): 1
- Selectivity indices relative to MCF10A, Ratio + anion:no anion ([6]; ratio of SI (MCF 10A), BXPC3): 1
- pIC50 ([7]; ARPE-19, 96 h, MTT, individual run, read-out: IC50 values for each replicate): 4.31 and 4.36 and 4.24 and 4.18 and 4.33
- pIC50 ([7]; ARPE-19, 96 h, MTT, mean of at least 3 independent experiments, read-out: Mean IC50): 4.28
- pIC50 ([7]; ARPE-19, mean of replicates, read-out: Mean IC50): 4.28
- pIC50 ([7]; ARPE-19 non-cancer, read-out: Mean IC50 values): 4.28
- Relative potency (+ anion to no anion), Ratio + anion:no anion ([7]; ratio of IC50, ARPE-19): 1
